The results in this text go back to DBAASP.

Test systems include Escherichia coli K91BK; Bacillus subtilis 168; Staphylococcus aureus MR; Escherichia coli BL21AI; Proteus vulgaris.
Test in all cases: ≥ marks a high value that may be exact or a test limit, other limits are often not marked, values filed in µg/mL are converted to µM
Test [1] relates to Bacillus subtilis KCTC 1918.
Test [2] has as its system Escherichia coli KCTC 1682.
The test system of test [3] is Salmonella typhimurium KCTC 1926.
Test [4] has as its system Pseudomonas aeruginosa KCTC 1637.
The test system of test [5] is Streptococcus pyogenes KCTC 3096.
The subject of test [6] is Staphylococcus aureus KCTC 1621.
Test [7] concerns Bacillus subtilis KCTC 3068.
In test [8] the test system is Staphylococcus epidermidis KCTC 1917.
Test [9] deals with Staphylococcus aureus KCTC 1916.
Test [10] concerns Mycobacterium tuberculosis H37Rv.
Test [11] concerns Streptococcus pneumoniae ATCC 49619.
The test system of test [12] is Bacillus anthracis Sterne 34F2.
Test [13] concerns Bacillus subtilis var. niger ATCC 9372.
The subject of test [14] is Staphylococcus aureus VRSA1.
The subject of test [15] is Staphylococcus aureus MU50.
Test [16] has as its system Micrococcus luteus CCM 144.
The subject of test [17] is Micrococcus luteus ATCC 10240.
Test [18] relates to Aspergillus flavus KCTC 7375.
Test [19] concerns Fusarium oxysporum KCTC 6084.
In test [20] the test system is Trichosporon beigelii KCTC 7251.
Test [21] concerns Bacillus megaterium KCTC 1096.
In test [22] the test system is Candida albicans KCTC 7121.

Converted amounts (≈) assume the structure as drawn.

On to `CC[C@H](C)[C@H](NC(=O)[C@@H](NC(=O)[C@@H](N)CCCN=C(N)N)[C@@H](C)CC)C(=O)N[C@@H](CC(=O)O)C(=O)N[C@@H](CC(C)C)C(=O)N[C@@H](CC(C)C)C(=O)N[C@@H](C)C(=O)N[C@@H](CCCN=C(N)N)C(=O)N[C@H](C(=O)N[C@@H](CCCN=C(N)N)C(=O)N[C@@H](CCCN=C(N)N)C(=O)N1CCC[C@H]1C(=O)N[C@@H](CCC(N)=O)C(=O)N[C@@H](CCCCN)C(=O)N1CCC[C@H]1C(=O)N[C@@H](CCCCN)C(=O)N[C@@H](Cc1ccccc1)C(=O)N[C@H](C(=O)N[C@H](C(=O)N[C@H](C(=O)N[C@@H](Cc1c[nH]c2ccccc12)C(=O)N[C@H](C(=O)N[C@@H](CCCN=C(N)N)C(=O)O)C(C)C)C(C)C)[C@@H](C)O)C(C)C)C(C)C` [RIIDLLARVRRPQKPKFVTVWVR], for which the MIC in [1] worked out at 1.56 µM (≈ 4.44 µg/mL); in test [2] it was 3.12 µM (≈ 8.9 µg/mL); in test [3], 1.56 µM (≈ 4.44 µg/mL); in [4], 1.56 µM (≈ 4.44 µg/mL); in test [5] it was 1.56 µM (≈ 4.44 µg/mL); in [6], 3.12 µM (≈ 8.9 µg/mL).
For the molecule `CC[C@H](C)[C@H](NC(=O)[C@H](CCCN=C(N)N)NC(=O)[C@H](CC(C)C)NC(=O)[C@H](CCC(N)=O)NC(=O)[C@H](CCCCN)NC(=O)[C@H](CC(C)C)NC(=O)[C@H](CC(C)C)NC(=O)[C@H](CC(C)C)NC(=O)[C@@H](NC(=O)[C@H](CCCCN)NC(=O)[C@H](CC(=O)O)NC(=O)[C@H](C)NC(=O)[C@@H](NC(=O)[C@H](CCCCN)NC(=O)[C@@H](N)CCCCN)C(C)C)C(C)C)C(=O)N[C@@H](CCSC)C(=O)N[C@@H](CCCN=C(N)N)C(=O)N[C@@H](CC(C)C)C(=O)O` [KKVADKVLLLKQLRIMRL], the minimum inhibitory concentration (MIC) in test [7] is 2 µM (≈ 4.33 µg/mL); in [8], at least 32 µM; in [2], 16 µM (≈ 34.7 µg/mL); in test [3] it was at least 64 µM; in [4], at least 32 µM; in [9], 8 µM (≈ 17.3 µg/mL).
Take `NCCCC[C@H](NC(=O)CNC(=O)CNC(=O)[C@H](CCCCN)NC(=O)[C@H](CCCCN)NC(=O)[C@H](Cc1cnc[nH]1)NC(=O)[C@H](CS)NC(=O)[C@H](CCC(N)=O)NC(=O)[C@H](CCCCN)NC(=O)[C@@H](N)Cc1ccc(O)cc1)C(=O)N[C@@H](CCCCN)C(=O)NCC(=O)N[C@@H](CO)C(=O)NCC(N)=O` [YKQCHKKGGKKGSG]: the MIC in [10] and in [11] was at least 300 µM in each case.
On to `CC(=O)N[C@@H](CCCCN)C(=O)N[C@@H](CC(C)C)C(=O)N[C@@H](Cc1c[nH]c2ccccc12)C(=O)N[C@@H](CCCCN)C(=O)N[C@@H](CCCCN)C(=O)N[C@@H](Cc1c[nH]c2ccccc12)C(=O)N[C@@H](CCCCN)C(=O)N[C@@H](CCCCN)C(=O)N[C@@H](Cc1c[nH]c2ccccc12)C(=O)N[C@@H](CCCCN)C(=O)N[C@@H](CCCCN)C(N)=O` [KLWKKWKKWKK], for which the MIC in test [12] is at least 100 µM; in [13], 25 µM (≈ 40.7 µg/mL); against Escherichia coli K91BK, at least 100 µM.
For `CC[C@H](C)[C@@H]1NC(=O)[C@@H]2CSSC[C@@H]3NC(=O)[C@H](CCCCN)NC(=O)[C@H](CC(=O)O)NC(=O)[C@H](CCC(N)=O)NC(=O)[C@H](Cc4ccccc4)NC(=O)[C@H](Cc4ccccc4)NC(=O)[C@@H]4CCCN4C(=O)[C@@H](NC(=O)[C@H](Cc4ccc(O)cc4)NC(=O)[C@H](Cc4ccc(O)cc4)NC(=O)CNC(=O)CN)CSSC[C@H](NC(=O)[C@H](Cc4ccc(O)cc4)NC(=O)CNC(=O)[C@H](C)NC(=O)[C@H](CCCCN)NC(=O)[C@H](CCCN=C(N)N)NC(=O)CNC(=O)[C@H](Cc4ccccc4)NC(=O)[C@H](CO)NC(=O)[C@H](CCCN=C(N)N)NC(=O)[C@H](CSSC[C@@H](C(=O)N[C@H](C(=O)O)C(C)C)NC1=O)NC(=O)[C@H](Cc1cnc[nH]1)NC(=O)[C@H](CCCN=C(N)N)NC(=O)[C@H](Cc1cnc[nH]1)NC3=O)C(=O)NCC(=O)NCC(=O)N[C@@H](Cc1ccccc1)C(=O)N[C@@H](CC(C)C)C(=O)N[C@@H](CCCCN)C(=O)N[C@@H](CCCCN)C(=O)N[C@@H]([C@@H](C)O)C(=O)N2` [GGYYCPFFQDKCHRHCRSFGRKAGYCGGFLKKTCICV], the MIC in test [14] is 7.55 µM (≈ 32 µg/mL); in test [15] it was 7.55 µM (≈ 32 µg/mL); in the test on Bacillus subtilis 168, 1.5 µM (≈ 6.35 µg/mL); against Staphylococcus aureus MR, 3.78 µM (≈ 16 µg/mL); in test [16], 0.75 µM (≈ 3.17 µg/mL).
`CC[C@H](C)[C@H](NC(=O)CNC(C)=O)C(=O)NCC(=O)N[C@@H](CCCCN)C(=O)N[C@@H](Cc1ccccc1)C(=O)N[C@@H](CC(C)C)C(=O)N[C@@H](CCCCN)C(=O)N[C@@H](CCCCN)C(=O)N[C@@H](C)C(=O)N[C@@H](CCCCN)C(=O)N[C@@H](CCCCN)C(=O)N[C@@H](Cc1ccccc1)C(=O)NCC(=O)N[C@@H](CCCCN)C(=O)N[C@@H](C)C(=O)N[C@@H](Cc1ccccc1)C(=O)N[C@H](C(=O)N[C@@H](CCCCN)C(=O)N[C@H](C(=O)N[C@@H](CC(C)C)C(=O)N[C@@H](CCCCN)C(=O)N[C@@H](CCCCN)C(N)=O)[C@@H](C)CC)C(C)C` [GIGKFLKKAKKFGKAFVKILKK]: the minimal inhibitory concentration (MIC) in [12] is 25 µM (≈ 63 µg/mL); in [13], 1.56 µM (≈ 3.93 µg/mL); with Escherichia coli K91BK, at least 100 µM.
As for `CC[C@H](C)[C@H](NC(=O)[C@H](CCCN=C(N)N)NC(=O)[C@@H]1CCCN1C(=O)[C@H](Cc1cnc[nH]1)NC(=O)[C@@H]1CCCN1C(=O)[C@@H]1CCCN1C(=O)[C@H](CCCN=C(N)N)NC(=O)[C@@H]1CCCN1C(=O)[C@H](CCC(N)=O)NC(=O)[C@@H]1CCCN1C(=O)[C@@H](NC(=O)[C@H](Cc1ccc(O)cc1)NC(=O)[C@@H](NC(=O)[C@@H]1CCCN1C(=O)[C@H](CCCN=C(N)N)NC(=O)[C@H](CC(N)=O)NC(=O)[C@@H](N)CC(N)=O)C(C)C)[C@@H](C)CC)C(N)=O` [NNRPVYIPQPRPPHPRI], the MIC stood at 15.2 µM (≈ 31.2 µg/mL) in test [17] and 1.91 µM (≈ 3.91 µg/mL) against Escherichia coli BL21AI.
`CC[C@H](C)[C@H](NC(=O)[C@H](CCCCN)NC(=O)[C@H](CCCCN)NC(=O)[C@@H](N)Cc1c[nH]c2ccccc12)C(=O)N1CCC[C@H]1C(=O)N[C@@H](CCCCN)C(=O)N[C@@H](Cc1ccccc1)C(=O)N[C@@H](CC(C)C)C(=O)N[C@@H](Cc1cnc[nH]1)C(=O)N[C@@H](CC(C)C)C(=O)N[C@@H](C)C(=O)N[C@@H](CCCCN)C(=O)N[C@@H](CCCCN)C(=O)N[C@@H](Cc1ccccc1)C(N)=O` [WKKIPKFLHLAKKF]: the MIC in test [1] is 0.78 µM (≈ 1.39 µg/mL); in test [18], at least 200 µM; in test [2], 12.5 µM (≈ 22.3 µg/mL); in test [19], at least 200 µM; with Proteus vulgaris it was 3.12 µM (≈ 5.57 µg/mL); in test [20] it was at least 200 µM. Besides, the MIC in test [21] is 1.56 µM (≈ 2.78 µg/mL); in [22] it was at least 200 µM; in test [4], 3.12 µM (≈ 5.57 µg/mL); in [6], 3.12 µM (≈ 5.57 µg/mL).
As for `CC[C@H](C)[C@H](NC(=O)[C@H](CCCCN)NC(=O)[C@H](CCCCN)NC(=O)[C@H](Cc1ccccc1)NC(=O)[C@@H](N)Cc1c[nH]c2ccccc12)C(=O)N1CCC[C@H]1C(=O)N[C@@H](CCCCN)C(=O)N[C@@H](Cc1ccccc1)C(=O)N[C@@H](CC(C)C)C(=O)N[C@@H](Cc1cnc[nH]1)C(=O)N[C@@H](CC(C)C)C(=O)N[C@@H](C)C(=O)N[C@@H](CCCCN)C(=O)N[C@@H](CCCCN)C(=O)N[C@@H](Cc1ccccc1)C(N)=O` [WFKKIPKFLHLAKKF], the MIC was 0.78 µM (≈ 1.51 µg/mL) in test [1]; at least 100 µM in [18]; 12.5 µM (≈ 24.1 µg/mL) in test [2]; at least 100 µM in test [19]; 1.56 µM (≈ 3.01 µg/mL) with Proteus vulgaris; at least 100 µM in [20]. For the same molecule, the minimal inhibitory concentration (MIC) in test [21] is 1.56 µM (≈ 3.01 µg/mL); in test [22], at least 100 µM; in test [4], 1.56 µM (≈ 3.01 µg/mL); in [6] it was 3.12 µM (≈ 6.03 µg/mL).

The term MIC denotes the lowest concentration found to suppress growth. A higher MIC goes with a less susceptible organism.
